The values that follow come from patent US20240294550A1, “8-OXA-3-AZABICYCLO[3.2.1]OCTANE COMPOUNDS OR SALT THEREOF, AND PREPARATION METHOD AND USE THEREOF” (LITTDD MEDICINES LTD, priority 2021, published 2024).

In one assay the target is ATR (Homo sapiens (Human), UniProt Q13535). As to the kind of experiment: ATR kinase inhibition assay (HTRF). Format: biochemical. The following applies: p53 substrate, ATP 150 nM. The method, then: This experiment adopted Homogeneous time-resolved fluorescence technology (HTRF®) of Cisbio Company for assay.
Sequence of ATR (Q13535 whole entry): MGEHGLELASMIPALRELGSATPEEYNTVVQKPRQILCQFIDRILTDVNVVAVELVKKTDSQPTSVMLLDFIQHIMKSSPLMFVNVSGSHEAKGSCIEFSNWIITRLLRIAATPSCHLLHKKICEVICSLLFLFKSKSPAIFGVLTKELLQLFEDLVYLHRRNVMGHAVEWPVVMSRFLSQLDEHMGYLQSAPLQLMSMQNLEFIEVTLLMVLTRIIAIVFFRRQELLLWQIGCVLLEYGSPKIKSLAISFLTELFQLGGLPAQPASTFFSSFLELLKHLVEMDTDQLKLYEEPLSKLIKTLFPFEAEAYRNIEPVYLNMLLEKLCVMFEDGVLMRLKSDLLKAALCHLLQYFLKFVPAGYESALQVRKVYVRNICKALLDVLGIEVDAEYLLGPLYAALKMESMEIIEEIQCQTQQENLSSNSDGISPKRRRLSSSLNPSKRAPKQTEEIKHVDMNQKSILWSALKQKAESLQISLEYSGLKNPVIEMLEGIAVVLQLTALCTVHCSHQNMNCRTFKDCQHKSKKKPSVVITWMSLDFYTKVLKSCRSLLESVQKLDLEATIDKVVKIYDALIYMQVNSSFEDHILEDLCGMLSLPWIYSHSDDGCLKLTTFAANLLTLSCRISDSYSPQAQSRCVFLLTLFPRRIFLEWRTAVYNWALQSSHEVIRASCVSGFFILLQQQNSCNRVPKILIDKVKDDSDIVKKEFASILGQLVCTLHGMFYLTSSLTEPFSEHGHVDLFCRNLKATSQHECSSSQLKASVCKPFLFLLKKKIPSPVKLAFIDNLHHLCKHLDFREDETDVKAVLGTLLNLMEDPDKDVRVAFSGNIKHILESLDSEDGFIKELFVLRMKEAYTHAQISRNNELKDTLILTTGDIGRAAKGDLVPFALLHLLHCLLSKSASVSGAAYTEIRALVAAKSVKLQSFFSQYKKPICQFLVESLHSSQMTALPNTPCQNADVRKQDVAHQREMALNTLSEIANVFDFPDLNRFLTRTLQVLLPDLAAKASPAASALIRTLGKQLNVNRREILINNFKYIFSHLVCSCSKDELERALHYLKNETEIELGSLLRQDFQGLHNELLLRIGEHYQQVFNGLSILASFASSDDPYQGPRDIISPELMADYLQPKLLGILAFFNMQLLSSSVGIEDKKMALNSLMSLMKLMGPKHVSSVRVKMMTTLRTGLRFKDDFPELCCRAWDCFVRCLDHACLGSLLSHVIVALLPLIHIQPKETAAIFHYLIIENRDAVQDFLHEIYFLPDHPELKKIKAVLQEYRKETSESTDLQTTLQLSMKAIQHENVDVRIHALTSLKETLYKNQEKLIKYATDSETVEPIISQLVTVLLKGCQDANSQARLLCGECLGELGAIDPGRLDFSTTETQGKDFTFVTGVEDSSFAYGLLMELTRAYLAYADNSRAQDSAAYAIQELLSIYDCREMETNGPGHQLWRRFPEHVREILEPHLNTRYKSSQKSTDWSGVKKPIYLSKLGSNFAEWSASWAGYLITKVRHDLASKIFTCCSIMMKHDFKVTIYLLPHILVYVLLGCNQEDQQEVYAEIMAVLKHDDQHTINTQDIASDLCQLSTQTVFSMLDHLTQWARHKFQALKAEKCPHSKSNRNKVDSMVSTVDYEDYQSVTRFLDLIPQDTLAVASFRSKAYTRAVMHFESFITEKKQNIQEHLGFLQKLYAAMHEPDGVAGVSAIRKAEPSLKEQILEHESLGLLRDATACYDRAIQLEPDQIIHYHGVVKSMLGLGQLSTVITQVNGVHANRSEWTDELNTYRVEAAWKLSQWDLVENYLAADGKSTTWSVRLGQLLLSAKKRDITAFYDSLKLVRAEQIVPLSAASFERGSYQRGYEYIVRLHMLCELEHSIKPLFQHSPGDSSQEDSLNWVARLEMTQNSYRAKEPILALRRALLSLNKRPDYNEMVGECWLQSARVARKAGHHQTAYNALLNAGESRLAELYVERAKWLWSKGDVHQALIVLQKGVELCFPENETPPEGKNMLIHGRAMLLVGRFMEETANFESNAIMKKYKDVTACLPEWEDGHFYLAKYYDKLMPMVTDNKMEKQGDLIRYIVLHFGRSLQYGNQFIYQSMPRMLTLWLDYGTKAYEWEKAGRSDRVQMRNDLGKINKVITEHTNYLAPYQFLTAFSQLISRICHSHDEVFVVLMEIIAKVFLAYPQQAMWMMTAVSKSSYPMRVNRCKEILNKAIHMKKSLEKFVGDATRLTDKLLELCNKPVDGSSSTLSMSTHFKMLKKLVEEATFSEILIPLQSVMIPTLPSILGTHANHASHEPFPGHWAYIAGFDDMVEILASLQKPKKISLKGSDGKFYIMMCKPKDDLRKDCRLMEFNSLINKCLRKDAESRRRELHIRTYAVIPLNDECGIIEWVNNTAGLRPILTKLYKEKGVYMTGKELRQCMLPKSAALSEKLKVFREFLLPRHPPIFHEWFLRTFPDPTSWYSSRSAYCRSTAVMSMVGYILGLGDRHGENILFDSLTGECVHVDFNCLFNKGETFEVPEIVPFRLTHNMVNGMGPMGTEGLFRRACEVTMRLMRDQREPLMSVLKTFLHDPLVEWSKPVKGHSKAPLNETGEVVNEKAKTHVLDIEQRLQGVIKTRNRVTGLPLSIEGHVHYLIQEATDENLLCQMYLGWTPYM
Sequence of ATR (Q8WXE1 whole entry partner): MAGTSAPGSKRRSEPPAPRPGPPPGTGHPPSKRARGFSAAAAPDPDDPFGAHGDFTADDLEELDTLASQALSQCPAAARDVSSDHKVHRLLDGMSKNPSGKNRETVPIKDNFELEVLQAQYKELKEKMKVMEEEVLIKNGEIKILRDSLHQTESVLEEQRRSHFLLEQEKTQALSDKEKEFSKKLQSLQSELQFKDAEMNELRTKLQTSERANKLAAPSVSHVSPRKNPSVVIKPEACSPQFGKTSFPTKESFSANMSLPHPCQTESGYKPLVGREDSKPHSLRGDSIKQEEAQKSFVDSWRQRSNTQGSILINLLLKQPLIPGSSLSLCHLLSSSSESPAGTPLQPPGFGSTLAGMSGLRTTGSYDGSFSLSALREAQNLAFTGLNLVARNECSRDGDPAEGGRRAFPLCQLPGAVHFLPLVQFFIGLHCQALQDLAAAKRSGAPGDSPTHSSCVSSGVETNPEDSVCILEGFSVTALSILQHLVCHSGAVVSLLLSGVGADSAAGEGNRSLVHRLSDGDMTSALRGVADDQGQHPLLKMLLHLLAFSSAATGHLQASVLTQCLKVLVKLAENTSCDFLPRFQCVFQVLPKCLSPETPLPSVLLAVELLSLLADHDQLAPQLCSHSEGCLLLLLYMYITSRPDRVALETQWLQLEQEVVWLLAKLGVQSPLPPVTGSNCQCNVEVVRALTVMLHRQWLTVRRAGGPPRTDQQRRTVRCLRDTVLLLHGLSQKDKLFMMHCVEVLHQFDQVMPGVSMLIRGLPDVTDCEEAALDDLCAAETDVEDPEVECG
Experiment method: buffers were prepared as follows:
Preparation of solutions of the test compounds: The example compounds shown in the table below were prepared into solutions using DMSO as solvent, the stock solution typically being 10 mM. The maximum starting concentration in this experiment was 3 μM, DMSO 3-fold serial dilutions for concentrations, the serially diluted solution was added to each well of the corresponding 384-well plate (geriner bio-one, Cat #784075) to give final concentrations of 3000, 1000, 333, 111, 37, 12.3, 4.12, 1.37, 0.457, 0.152 nM, respectively, and the corresponding amount of DMSO was added to the additional wells to be used as negative or positive control wells, respectively.
The enzyme and substrate were separately dissolved and diluted in two tubes with the buffer prepared above at the following concentrations:
5 μL of the ATR protein solution from tube A was added to the compound-containing wells and the negative control wells in the assay plates using an electric multichannel pipettor, and the same volume of the prepared buffer (medium only, no enzyme) was added to the positive control wells. The plates were centrifuged for one minute at 1000 rpm, and then placed in an incubator at 25° C. for 15 minutes. 5 μL of the substrate mix solution from tube B was added to the positive control well, negative control well and the compound-containing well of the assay plates in the same manner, centrifuged and incubated at 25° C. for 90 minutes.
During the reaction, after ATR phosphorylated the substrate p53, two antibodies were added. Among them, anti-phospho-p53-Eu, as an energy donor, can specifically bind to the phosphorylation site of p53, while anti-GST-d2, as an energy receptor, can specifically bind to the GST-tagged p53. Upon excitation by a laser with certain wavelength (the excitation wavelength in this experiment is 340 nm), the energy donor can emit emission light of 615 nm, and when the energy donor and the energy receptor are close enough in space (that is, two antibodies are connected to p53 at the same time), energy transfer can occur between the energy donor and the energy receptor, so that the energy receptor can emit emission light of 665 nm. The two emission lights were detected by a plate reader, and the ratio of the signals at 665 nm and 615 nm was calculated. The IC50 of the samples tested can be obtained by plotting and calculation.
10 μL per well of the detection solution was added to the positive control, negative control and compound wells of the assay plate using an electric multichannel pipette, centrifuged and incubated overnight at 4° C., and read with the plate reader Envision 2104.
Compound inhibition rate was calculated using interpolation. The mean values of the positive and negative controls were calculated respectively, and the following formula was used to calculate the inhibition rates of the compounds:
Inhibition rate Minimum response+(Compound concentration ^Curve slope)*(Maximum response−Minimum response)/(Compound concentration^Curve slope+Half inhibition concentration ^Curve slope)
The IC50 value of each compound to enzyme activity was obtained.
(TR-FRET usually uses a lanthanide donor and a delayed reading to cut background.)

In the next assay the test system is LOVO cells. As to the kind of experiment: Cell proliferation assay (CellTiter-Glo). The class given is cell-based. Particulars: Homo sapiens, 96 hours. The method, then:
The cell proliferation inhibition effect of the compound of the invention was tested using CellTiter-Glo™ cell viability assay kit. This kit uses luciferase as the detector. During the luminescence process, the luciferase requires the participation of ATP. CellTiter-Glo™ reagent was added to the cell culture medium, and the luminescence value was measured. The light signal is proportional to the amount of ATP present in the system, and ATP positively correlates with the number of viable cells present, thus the cell proliferation activity is measured.
Cell culture and seeding: LOVO cells in logarithmic growth phase (human colon carcinoma cells) (ATCC CCL-229) were harvested and counted using a platelet counter. Trypan blue exclusion method was used to detect the cell viability to ensure that the cell viability was above 90%. 90 μL of cell suspension (RPMI1640+10% fetal bovine serum) was added to a 96-well transparent flat-bottom black-wall plate (Thermo, 165305) respectively, and the cell concentration was adjusted to 3000/well/90 μl. Cells in the 96-well plate were incubated overnight at 37° C., 5% CO2 with 95% humidity (Thermo, Model 3100 Series).
Firstly, DMSO was used as the solvent to prepare 10 mM mother solution of the test compounds, and then PBS was used to dilute 100 times to prepare a solution of 10 times of final concentration, the highest concentration was 100 μM. 10 μL solution of the test compounds was added to each well of the 96 well plate inoculated with cells, namely the solution was further diluted 10 times to reach the final concentration of 10 μM. Starting from 10 μM, the final concentration of the test compound was 3-fold serially diluted, with 9 concentrations in total with 3 triplicates for each concentration. The 96 well plates with the test compounds and cells were incubated at 37° C., 5% CO2 and 95% humidity for 96 hours, and then CellTiter Glo analysis was performed.
CellTiter-Glo Reagents (CellTiter Glo R Luminescent Cell Viability Assay, Promega, G7572) were melted and the 96-well plates were equilibrated to room temperature for 30 minutes. An equal volume of CellTiter-Glo solution was added to each well, and the cells were lysed by shaking on the fixed orbit shaker for 5 minutes. The assay plates were left at room temperature for 20 minutes to stabilize the luminescence signal, and the luminescence signals were read using the SpectraMax multi-labeled microplate detector (MD, M3).
Data were analyzed using GraphPad Prism 7.0 software, fitted with non-linear S-curve regression to derive the dose-response curves, and IC50 values were calculated therefrom.
Cell survival rate (%)=(LumDrug to be tested−LumCulture medium control)/(LumCell control−LumCulture medium control)×100%

Counter-ions that a name gives are not always drawn.

As a reminder, the IC50 is the point on the concentration scale where inhibition reaches its midpoint. In the case of `C[C@@H]1COCCN1c1cc(N2CC3CCC(C2)O3)nn2c(-c3cc[nH]n3)cnc12` [Example 2, 3-(8-((R)-3-methylmorpholino)-3-(1H-pyrazol-3-yl)imidazo[1,2-b]pyridazin-6-yl)-8-oxa-3-azabicyclo[3.2.1]octane], the values for the IC50 against ATR and in the assay on LOVO cells were 40.3 nM and 479 nM, respectively.
For `C[C@@H]1COCCN1c1c(Cl)c(N2CC3CCC(C2)O3)nn2c(-c3cc[nH]n3)ncc12` [Example 4, 3-(3-chloro-4-((R)-3-methylmorpholino)-7-(1H-pyrazol-3-yl)imidazo[1,5-b]pyridazin-2-yl)-8-oxa-3-azabicyclo[3.2.1]octane], the values for the half-maximal inhibitory concentration (IC50) at ATR and with LOVO cells were 20.3 nM and 140 nM, respectively.
The molecule `c1cc(-c2ncc3c(N4CCOCC4)cc(N4CC5CCC(C4)O5)nn23)n[nH]1` [Example 7, 3-(4-morpholino-7-(1H-pyrazol-3-yl)imidazo[1,5-b]pyridazin-2-yl)-8-oxa-3-azabicyclo[3.2.1]octane] showed an IC50 at ATR of 21.4 nM.
In the case of `c1cc(-c2ncc3c(N4C5CCC4COC5)cc(N4CC5CCC(C4)O5)nn23)n[nH]1` [Example 8, 8-(2-(8-oxa-3-azabicyclo[3.2.1]octan-3-yl)-7-(1H-pyrazol-3-yl)imidazo[1,5-b]pyridazin-4-yl)-3-oxa-8-azabicyclo[3.2.1]octane], the values for the half-maximal inhibitory concentration (IC50) against ATR and in the assay on LOVO cells were 18.4 nM and 243 nM, respectively.
For the molecule `C[C@@H]1CNCCN1c1cc(N2CC3CCC(C2)O3)nn2c(-c3cc[nH]n3)ncc12` [Example 9, 3-(4-((R)-2-methylpiperazin-1-yl)-7-(1H-pyrazol-3-yl)imidazo[1,5-b]pyridazin-2-yl)-8-oxa-3-azabicyclo[3.2.1]octane formate], the concentration for half-maximal inhibition (IC50) against ATR worked out at 79.2 nM; in the assay on LOVO cells, 592 nM.
For `c1cc(-c2ncc3c(N4CCNCC4)cc(N4CC5CCC(C4)O5)nn23)n[nH]1` [Example 10, 3-(4-(piperazin-1-yl)-7-(1H-pyrazol-3-yl)imidazo[1,5-b]pyridazin-2-yl)-8-oxa-3-azabicyclo[3.2.1]octane formate], half-maximal inhibition at ATR (IC50) was put at 145 nM.
For `C[C@@H]1CN(C)CCN1c1cc(N2CC3CCC(C2)O3)nn2c(-c3cc[nH]n3)ncc12` [Example 11, 3-(4-((R)-2,4-dimethylpiperazin-1-yl)-7-(1H-pyrazol-3-yl)imidazo[1,5-b]pyridazin-2-yl)-8-oxa-3-azabicyclo[3.2.1]octane formate], the 50% inhibitory concentration (IC50) against ATR came to 22.4 nM; in the assay on LOVO cells, 2640 nM.
As to `c1cc(-n2ncc3c(N4CC5CCC(C4)O5)cc(N4CC5CCC(C4)O5)nc32)n[nH]1` [Example 12, 3-(6-(-8-oxa-3-azabicyclo[3.2.1]octan-3-yl)-1-(1H-pyrazol-3-yl)-1H-pyrazolo[3,4-b]pyridin-4-yl)-8-oxa-3-azabicyclo[3.2.1]octane], the IC50 against ATR was 16.9 nM.
`Cn1nc(-c2cc[nH]n2)c2nc(N3CC4CCC(C3)O4)cc(N3CC4CCC(C3)O4)c21` [Example 13, 3-(7-(8-oxa-3-azabicyclo[3.2.1]octan-3-yl)-1-methyl-3-(1H-pyrazol-3-yl)-1H-pyrazolo[4,3-b]pyridin-5-yl)-8-oxa-3-azabicyclo[3.2.1]octane] came in with a concentration for half-maximal inhibition (IC50) on ATR of 18 nM.
Turning to `FC1(F)CCN(c2cc(N3CC4CCC(C3)O4)nn3c(-c4cc[nH]n4)ncc23)CC1` [Example 14, 3-(4-(4,4-difluoropiperidin-1-yl)-7-(1H-pyrazol-3-yl)imidazo[1,5-b]pyridazin-2-yl)-8-oxa-3-azabicyclo[3.2.1]octane], the IC50 against ATR was determined as 8 nM; in the assay with LOVO cells it was 419 nM.
For `C[C@H]1COCCN1c1cc(N2CC3CCC(C2)O3)nn2c(-c3cc[nH]n3)ncc12` [Example 15, 3-(4-((S)-3-methylmorpholino)-7-(1H-pyrazol-3-yl)imidazo[1,5-b]pyridazin-2-yl)-8-oxa-3-azabicyclo[3.2.1]octane] the same measures were 22 nM and 186 nM.
For `C[C@@H]1CN(c2cc(N3CC4CCC(C3)O4)nn3c(-c4cc[nH]n4)ncc23)C[C@H](C)O1` [Example 16, 3-(4-(cis-2,6-dimethylmorpholino)-7-(1H-pyrazol-3-yl)imidazo[1,5-b]pyridazin-2-yl)-8-oxa-3-azabicyclo[3.2.1]octane] the same measures were 21.9 nM and 310 nM.
With `c1cc(-c2ncc3c(N4CCCCC4)cc(N4CC5CCC(C4)O5)nn23)n[nH]1` [Example 17, 3-(4-(piperidin-1-yl)-7-(1H-pyrazol-3-yl)imidazo[1,5-b]pyridazin-2-yl)-8-oxa-3-azabicyclo[3.2.1]octane], the half-maximal inhibitory concentration (IC50) on ATR is 32 nM.
On the same count and under the same terms, to `CC1CN(c2cc(N3CC4CCC(C3)O4)nn3c(-c4cc[nH]n4)ncc23)CCO1` (stereo not shown) [Example 18, 3-(4-(2-methylmorpholino)-7-(1H-pyrazol-3-yl)imidazo[1,5-b]pyridazin-2-yl)-8-oxa-3-azabicyclo[3.2.1]octane] belongs 50.8 nM.
In the case of `C[C@@H]1COCCN1c1cc(N2CC3CCC(C2)O3)nc2c(-c3cc[nH]n3)nn(C)c12` [Example 19, 3-(1-methyl-7-((R)-3-methylmorpholino)-3-(1H-pyrazol-3-yl)-1H-pyrazolo[4,3-b]pyridin-5-yl)-8-oxa-3-azabicyclo[3.2.1]octane], in the assay with LOVO cells, it took 620 nM to reach half-maximal inhibition (IC50).
As for `CC1(C)COCCN1c1cc(N2CC3CCC(C2)O3)nn2c(-c3cc[nH]n3)ncc12` [Example 20, 3-(4-(3,3-dimethylmorpholino)-7-(1H-pyrazol-3-yl)imidazo[1,5-b]pyridazin-2-yl)-8-oxa-3-azabicyclo[3.2.1]octane], the IC50 at ATR was 1.4 nM; with LOVO cells, 39 nM.
`OC1(c2cc(N3C[C@H]4CC[C@@H](C3)O4)nc3c(-c4ccn[nH]4)cnn23)CCOCC1` [Example 23, 4-(5-((1R,5S)-8-oxa-3-azabicyclo[3.2.1]octan-3-yl)-3-(1H-pyrazol-5-yl)pyrazolo[1,5-a]pyrimidin-7-yl)tetrahydro-2H-pyran-4-ol]: the IC50 on ATR was determined as 85.5 nM.
`Cn1nccc1-c1cc(N2CC3CCC(C2)O3)nn2c(-c3cc[nH]n3)cnc12` [Example 27, 3-(8-(1-methyl-1H-pyrazol-5-yl)-3-(1H-pyrazol-3-yl)imidazo[1,2-b]pyridazin-6-yl)-8-oxa-3-azabicyclo[3.2.1]octane] registered an IC50 against ATR of 149 nM.
Still for that read-out and setting: to `CC1CC(F)(F)CCN1c1cc(N2CC3CCC(C2)O3)nn2c(-c3cc[nH]n3)ncc12` (stereo not shown) [Example 30, 3-(4-(4,4-difluoro-2-methylpiperidin-1-yl)-7-(1H-pyrazol-3-yl)imidazo[1,5-b]pyridazin-2-yl)-8-oxa-3-azabicyclo[3.2.1]octane] belongs 5.2 nM.
